Patent publication US20070225253A1, “Use of a trioxopyrimidine for the treatment and prevention of bronchial inflammatory diseases” (priority 2004, published 2007)

How the values were obtained:
Experiment in all cases: MMP enzymatic activity, modified fluorescence assay (DNP-substrate)
Type in all cases: biochemical
Human MMP-2 = target: T1, Human MMP-2 (Homo sapiens, UniProt P08253)
T1 sequence (P08253 110-660): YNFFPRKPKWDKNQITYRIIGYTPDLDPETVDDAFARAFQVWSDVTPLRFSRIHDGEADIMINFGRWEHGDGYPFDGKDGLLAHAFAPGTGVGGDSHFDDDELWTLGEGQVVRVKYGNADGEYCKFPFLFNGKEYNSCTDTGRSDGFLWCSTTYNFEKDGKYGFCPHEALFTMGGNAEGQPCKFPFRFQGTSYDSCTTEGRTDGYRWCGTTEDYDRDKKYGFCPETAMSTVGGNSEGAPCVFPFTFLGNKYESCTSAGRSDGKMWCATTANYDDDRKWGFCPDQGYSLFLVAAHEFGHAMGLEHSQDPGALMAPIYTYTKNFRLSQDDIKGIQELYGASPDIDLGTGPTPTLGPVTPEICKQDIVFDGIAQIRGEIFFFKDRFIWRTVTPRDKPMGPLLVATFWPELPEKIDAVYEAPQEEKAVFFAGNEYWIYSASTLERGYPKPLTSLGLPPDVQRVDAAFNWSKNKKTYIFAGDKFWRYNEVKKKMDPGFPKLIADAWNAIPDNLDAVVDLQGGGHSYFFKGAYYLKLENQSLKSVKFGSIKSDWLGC
Method: (§1) IC50 values are measured by an in vitro assay for MMP enzymatic activity. […] This assay is based on the determination of MMP enzymatic activity on a dinitrophenol substrate and fluorescence measurement of the substrate after cleaving by MMPs.
(§2) Human MMP-1, MMP-2, MMP-3, MMP-9 and MMP-14 are commercially available (e.g. Calbiochem). The pro-enzymes were activated with 1 mM APMA (incubation for 30 min at 37° C.) immediately before testing. Activated enzyme is diluted to 100 ng/ml in incubation buffer (50 mM Tris, 100 mM NaCl, 10 mM CaCl2, pH 7.6). The compounds were dissolved in 100% DMSO.
(§3) The test tube contains 970 μl incubation buffer, 10 μl inhibitor solution and 10 μl enzyme solution. The reaction was started by adding the 10 μl substrate solution.

Human MMP-3 = Human MMP-3 (Homo sapiens, UniProt P08254)
Chain of Human MMP-3 (P08254 100-477): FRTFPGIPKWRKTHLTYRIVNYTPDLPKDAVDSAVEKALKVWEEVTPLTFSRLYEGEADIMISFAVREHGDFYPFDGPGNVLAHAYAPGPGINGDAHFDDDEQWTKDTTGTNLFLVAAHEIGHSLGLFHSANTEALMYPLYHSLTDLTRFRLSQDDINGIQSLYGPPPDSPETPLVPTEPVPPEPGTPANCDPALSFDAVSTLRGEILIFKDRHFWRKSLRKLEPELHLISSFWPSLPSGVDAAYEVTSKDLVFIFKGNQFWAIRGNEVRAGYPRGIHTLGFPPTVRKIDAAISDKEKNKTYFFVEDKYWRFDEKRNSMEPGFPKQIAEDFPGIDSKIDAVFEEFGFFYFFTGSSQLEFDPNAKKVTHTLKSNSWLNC
Method: as §1, §2, §3

Human MMP-14 = Human MMP-14 (Homo sapiens, UniProt P50281)
Method: (§4) IC50 values are measured by an in vitro assay for MMP enzymatic activity. Such an assay is described by Stack, M. S., and Gray, R. D., J. Biol. Chem. 264 (1989) 4277-4281. This assay is based on the determination of MMP enzymatic activity on a dinitrophenol substrate and fluorescence measurement of the substrate after cleaving by MMPs.
as §2, with “Inhibitors were tested in a modified fluorescence-assay as described by Stack, M. S., and Gray, R. D., J. Biol. Chem. 264 (1989) 4277-4281. Human” for “Human”, “DMSO. […] DNP-substrate (Bachem M1855, 255 μM) was dissolved in incubation buffer.” for “DMSO.”
as §3
(§5) Kinetics of activity were determined using excitation at 280 nm and emission at 346 nm measured on a FluoroMax™ (Spex Industries Inc., Edison, N.J., USA) over 120 sec. DMSO has been used as control instead of inhibitor solution.
(§6) IC50's are defined as the concentration of inhibitor that gives a signal that is 50% of the positive enzyme control.

Human MMP-9 = Human MMP-9 (Homo sapiens, UniProt P14780)
Chain of Human MMP-9 (P14780 107-707 limits assumed): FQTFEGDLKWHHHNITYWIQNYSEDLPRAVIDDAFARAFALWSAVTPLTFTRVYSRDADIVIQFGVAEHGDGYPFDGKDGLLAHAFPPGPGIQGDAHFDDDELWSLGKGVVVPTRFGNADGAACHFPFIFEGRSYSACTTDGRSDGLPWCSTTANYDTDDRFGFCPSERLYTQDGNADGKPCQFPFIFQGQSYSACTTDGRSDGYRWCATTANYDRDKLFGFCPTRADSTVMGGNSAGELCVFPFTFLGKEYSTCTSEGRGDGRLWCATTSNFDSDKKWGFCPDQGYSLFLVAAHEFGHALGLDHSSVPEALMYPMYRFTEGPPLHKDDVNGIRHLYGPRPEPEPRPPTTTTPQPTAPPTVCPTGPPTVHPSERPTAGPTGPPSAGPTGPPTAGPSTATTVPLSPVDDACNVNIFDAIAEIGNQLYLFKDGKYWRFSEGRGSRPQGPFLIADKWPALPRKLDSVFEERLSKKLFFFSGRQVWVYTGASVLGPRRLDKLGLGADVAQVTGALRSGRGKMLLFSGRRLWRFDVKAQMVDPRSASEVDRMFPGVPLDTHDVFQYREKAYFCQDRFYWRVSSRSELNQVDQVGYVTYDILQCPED
Method: as §4
as §2, with “Inhibitors were tested in a modified fluorescence-assay as described by Stack, M. S., and Gray, R. D., J. Biol. Chem. 264 (1989) 4277-4281. Human” for “Human”, “DMSO. […] DNP-substrate (Bachem M1855, 255 μM) was dissolved in incubation buffer.” for “DMSO.”
as §3, §5, §6

## O=C1NC(=O)C(c2ccc(-c3ccccc3)cc2)(N2CCN(c3ccc([N+](=O)[O-])cc3)CC2)C(=O)N1 [Compound I, 5-Biphenyl-4-yl-5-[4-(4-nitro-phenyl)-piperazin-1-yl]pyrimidine-2,4,6-trione]
Human MMP-2
  IC50: 65 nM
Human MMP-3
  IC50: 3500 nM
Human MMP-14
  IC50: 1 nM
Human MMP-9
  IC50: 260 nM
